pIC50: −log10 of the molar value.
Tests used:
hNav1.7 [1] = target: T1, hNav1.7 (Homo sapiens (Human), UniProt Q15858); assay: Patch voltage clamp electrophysiology (PatchXpress), HEK-293 cells, inactivated state block; assay type: cell-based; conditions: read-out: EP_PX 293 hNav1.7 (IC50)
hNav1.7 [2] = target: T1, hNav1.7; assay: Tritiated aryl sulfonamide binding to membranes from cells expressing hNav1.7 and the β1 subunit (competitive binding); conditions: read-out: NaV1.7 395 Memb Binding (IC50)
How it was run: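 Competitive displacement of 100 μM [3H]-labelled tritiated aryl sulfonamide from hNav1.7/β1 membranes, 18 h at room temperature in 100 mM NaCl, 20 mM Tris HCl pH 7.4. Non-specific binding defined with 1 μM unlabelled compound. Filter-bound radioactivity measured by liquid scintillation counting.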

[3] = HEK-293 cells, β1 coexpressed, inactivated state, holding −60 mV
[4] = membranes with hNav1.7 and β1 subunit, [3H]compound displacement, 18 h, room temperature

T1 sequence (Q15858 whole entry, looked up): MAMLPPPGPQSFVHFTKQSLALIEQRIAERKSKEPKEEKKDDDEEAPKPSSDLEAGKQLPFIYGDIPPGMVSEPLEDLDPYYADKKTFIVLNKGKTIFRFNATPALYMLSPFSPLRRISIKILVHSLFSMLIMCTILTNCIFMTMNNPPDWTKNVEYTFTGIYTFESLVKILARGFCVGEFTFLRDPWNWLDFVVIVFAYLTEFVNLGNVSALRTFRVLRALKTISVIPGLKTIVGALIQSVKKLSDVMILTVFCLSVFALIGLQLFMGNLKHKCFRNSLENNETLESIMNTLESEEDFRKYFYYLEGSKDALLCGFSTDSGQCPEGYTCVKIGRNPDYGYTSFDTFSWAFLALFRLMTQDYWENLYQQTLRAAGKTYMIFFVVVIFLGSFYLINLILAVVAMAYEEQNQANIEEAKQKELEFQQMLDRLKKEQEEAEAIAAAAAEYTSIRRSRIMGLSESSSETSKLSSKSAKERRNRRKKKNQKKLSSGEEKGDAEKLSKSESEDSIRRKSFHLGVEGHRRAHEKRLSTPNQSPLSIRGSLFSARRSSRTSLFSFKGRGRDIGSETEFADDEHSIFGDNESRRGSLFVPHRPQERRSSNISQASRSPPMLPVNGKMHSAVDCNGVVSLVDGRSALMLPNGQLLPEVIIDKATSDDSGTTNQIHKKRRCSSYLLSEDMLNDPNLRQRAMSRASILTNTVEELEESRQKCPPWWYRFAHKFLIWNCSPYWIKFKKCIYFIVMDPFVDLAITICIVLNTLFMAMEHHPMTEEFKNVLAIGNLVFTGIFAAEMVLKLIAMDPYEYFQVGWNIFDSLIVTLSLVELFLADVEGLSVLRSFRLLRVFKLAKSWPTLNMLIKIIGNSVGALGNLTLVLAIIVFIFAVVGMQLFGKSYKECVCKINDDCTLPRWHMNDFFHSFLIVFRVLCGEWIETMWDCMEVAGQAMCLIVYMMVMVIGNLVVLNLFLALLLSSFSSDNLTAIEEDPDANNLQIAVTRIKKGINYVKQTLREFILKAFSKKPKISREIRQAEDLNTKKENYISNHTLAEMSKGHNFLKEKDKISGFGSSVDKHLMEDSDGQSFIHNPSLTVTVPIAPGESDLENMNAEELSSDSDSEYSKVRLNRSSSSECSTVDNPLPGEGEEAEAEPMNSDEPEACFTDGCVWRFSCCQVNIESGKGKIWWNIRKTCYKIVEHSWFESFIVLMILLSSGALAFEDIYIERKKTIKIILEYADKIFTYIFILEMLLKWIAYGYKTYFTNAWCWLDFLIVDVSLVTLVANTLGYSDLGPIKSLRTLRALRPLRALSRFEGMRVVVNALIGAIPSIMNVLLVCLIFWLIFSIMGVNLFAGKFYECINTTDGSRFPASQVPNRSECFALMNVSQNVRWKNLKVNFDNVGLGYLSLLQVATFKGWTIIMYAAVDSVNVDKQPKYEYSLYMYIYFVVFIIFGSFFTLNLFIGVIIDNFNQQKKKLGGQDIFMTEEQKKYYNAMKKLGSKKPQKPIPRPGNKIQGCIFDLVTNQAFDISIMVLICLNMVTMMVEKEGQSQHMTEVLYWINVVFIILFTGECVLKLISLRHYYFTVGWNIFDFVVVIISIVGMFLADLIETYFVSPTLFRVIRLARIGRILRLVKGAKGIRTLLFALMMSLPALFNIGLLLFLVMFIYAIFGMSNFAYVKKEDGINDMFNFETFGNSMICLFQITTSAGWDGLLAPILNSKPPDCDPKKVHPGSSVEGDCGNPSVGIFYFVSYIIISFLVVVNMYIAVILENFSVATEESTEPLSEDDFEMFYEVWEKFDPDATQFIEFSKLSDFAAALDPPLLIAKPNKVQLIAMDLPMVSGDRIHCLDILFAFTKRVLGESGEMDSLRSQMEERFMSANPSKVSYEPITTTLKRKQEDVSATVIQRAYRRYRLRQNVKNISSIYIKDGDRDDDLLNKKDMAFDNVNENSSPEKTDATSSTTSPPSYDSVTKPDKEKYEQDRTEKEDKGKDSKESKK
T1 sequence (Q07699 whole entry partner, looked up): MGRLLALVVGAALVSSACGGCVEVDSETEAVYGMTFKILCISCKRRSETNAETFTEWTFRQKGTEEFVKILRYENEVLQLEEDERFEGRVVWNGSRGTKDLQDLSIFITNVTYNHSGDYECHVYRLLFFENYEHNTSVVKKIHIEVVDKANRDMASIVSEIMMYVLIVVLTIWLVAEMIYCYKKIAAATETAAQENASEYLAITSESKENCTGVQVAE

O=C(NS(=O)(=O)N1CCC1)c1cc(C2CC2)c(OCC2CCCC(F)(F)C2)cc1F (centres unmarked)
pIC50 (hNav1.7 [1]; [3]): 7.37
pIC50 (hNav1.7 [2]; [4]): 7.66

CNS(=O)(=O)NC(=O)c1cc(C2CC2)c(OCC2CCCC(F)(F)C2)cc1F (centres unmarked)
pIC50 (hNav1.7 [1]; [3]): 6.03
pIC50 (hNav1.7 [2]; [4]): 7.18

CS(=O)(=O)NC(=O)c1cc(C2CC2)c(OCC2CCCC(F)(F)C2)cc1F (centres unmarked)
pIC50 (hNav1.7 [1]; [3]): 6.38
pIC50 (hNav1.7 [2]; [4]): 7.57

CCS(=O)(=O)NC(=O)c1cc(C2CC2)c(OCC2CCC3(CC2)CC3)cc1F
pIC50 (hNav1.7 [1]; [3]): 7.64
pIC50 (hNav1.7 [2]; [4]): 8.52

CC1CCC(COc2cc(F)c(C(=O)NS(C)(=O)=O)cc2C2CC2)CC1 (centres unmarked)
pIC50 (hNav1.7 [1]; [3]): 7.55
pIC50 (hNav1.7 [2]; [4]): 8.10

O=C(NS(=O)(=O)N1CCC1)c1cc(C2CC2)c(OCC2CC=C(C3CC3)CC2)cc1F (centres unmarked)
pIC50 (hNav1.7 [1]; [3]): 8.00
pIC50 (hNav1.7 [2]; [4]): 8.22

CO[C@]12CC3CC(C1)[C@@H](Oc1cc(F)c(C(=O)NS(=O)(=O)N4CCC4)cc1C1CC1)C(C3)C2
pIC50 (hNav1.7 [1]; [3]): 6.72
pIC50 (hNav1.7 [2]; [4]): 7.00

CC1(COc2cc(F)c(C(=O)NS(=O)(=O)C3CC3)cc2C2CC2)CC=CCC1 (centres unmarked)
pIC50 (hNav1.7 [1]; [3]): 7.92
pIC50 (hNav1.7 [2]; [4]): 8.30

CC1(COc2cc(F)c(C(=O)NS(=O)(=O)N3CCC3)cc2C2CC2)CCC2(CC1)CC2(F)F (centres unmarked)
pIC50 (hNav1.7 [1]; [3]): 7.33
pIC50 (hNav1.7 [2]; [4]): 7.96

CC1(COc2cc(F)c(C(=O)NS(C)(=O)=O)cc2C2CC2)CCC(C(F)(F)F)CC1 (centres unmarked)
pIC50 (hNav1.7 [1]; [3]): 7.23
pIC50 (hNav1.7 [2]; [4]): 8.40

CCc1cc(C(=O)NS(=O)(=O)N2CCC2)c(F)cc1OCC12CC3CC(CC(C3)C1)C2
pIC50 (hNav1.7 [1]; [3]): 8.48
pIC50 (hNav1.7 [2]; [4]): 8.30

O=C(NS(=O)(=O)CCO)c1cc(C2CC2)c(OCC23CC4CC(CC(C4)C2)C3)cc1F
pIC50 (hNav1.7 [1]; [3]): 8.34
pIC50 (hNav1.7 [2]; [4]): 8.15

CN(C)S(=O)(=O)NC(=O)c1cc(Cl)c(OCC23CC4CC(CC(Cl)(C4)C2)C3)cc1F
pIC50 (hNav1.7 [1]; [3]): 7.07
pIC50 (hNav1.7 [2]; [4]): 6.80

CN(C)S(=O)(=O)NC(=O)c1cc(Cl)c(OCC2(C(F)(F)F)CCC2)cc1F
pIC50 (hNav1.7 [1]; [3]): 7.38
pIC50 (hNav1.7 [2]; [4]): 6.53

4-(adamantan-1-ylmethoxy)-N-(azetidin-1-ylsulfonyl)-3-chloro-5-fluorobenzamide [Example 416]
pIC50 (hNav1.7 [1]; [3]): 8.05
pIC50 (hNav1.7 [2]; [4]): 8.30

5-chloro-4-(cyclohexylmethoxy)-2-fluoro-N-(methylsulfonyl)benzamide [Example 21]
pIC50 (hNav1.7 [1]; [3]): 6.97
pIC50 (hNav1.7 [2]; [4]): 5.97

O=C(NS(=O)(=O)N1CCC1)c1cc(C2CC2)c(OCC2CN(C(c3ccccc3)c3ccccc3)C2)cc1F (racemic)
pIC50 (hNav1.7 [1]; [3]): 6.46
pIC50 (hNav1.7 [2]; [4]): 7.92

O=C(NS(=O)(=O)C1CC1)c1cc(C2CC2)c(OCC2CN(C(c3ccccc3)c3ccccc3)C2)cc1F (single isomer, unassigned)
pIC50 (hNav1.7 [1]; [3]): 7.09
pIC50 (hNav1.7 [2]; [4]): 8.30

CC12CC3CC(C)(C1)CC(COc1cc(F)c(C(=O)NS(C)(=O)=O)cc1Cl)(C3)C2 [Example 23]
pIC50 (hNav1.7 [1]; [3]): 7.64
pIC50 (hNav1.7 [2]; [4]): 7.89

CC1(C)[C@@H]2CC[C@@]1(C)[C@@H](Oc1cc(F)c(C(=O)NS(C)(=O)=O)cc1Cl)C2 [Example 25]
pIC50 (hNav1.7 [1]; [3]): 7.57
pIC50 (hNav1.7 [2]; [4]): 6.66

CC(Oc1cc(F)c(C(=O)NS(C)(=O)=O)cc1Cl)C12CC3CC(CC(C3)C1)C2 (centres unmarked) [Example 31]
pIC50 (hNav1.7 [1]; [3]): 6.84
pIC50 (hNav1.7 [2]; [4]): 5.85

O=C(NS(=O)(=O)C1CC1)c1cc(Cl)c(OC2CCC(Cl)(Cl)CC2)cc1F [Example 293]
pIC50 (hNav1.7 [1]; [3]): 6.85
pIC50 (hNav1.7 [2]; [4]): 6.74

CO[C@@H]1CCN(S(=O)(=O)NC(=O)c2cc(C3CC3)c(OCC34CC5CC(CC(C5)C3)C4)cc2F)C1 [Example 301]
pIC50 (hNav1.7 [1]; [3]): 6.44
pIC50 (hNav1.7 [2]; [4]): 7.85

CC1(OCc2cc(F)c(C(=O)NS(C)(=O)=O)cc2Cl)CCC(F)(F)CC1 [Example 305]
pIC50 (hNav1.7 [1]; [3]): 5.85
pIC50 (hNav1.7 [2]; [4]): 6.51

CS(=O)(=O)NC(=O)c1cc(C2CC2)c(O[C@H]2C3CC4CC2C[C@](F)(C4)C3)cc1F [Example 308]
pIC50 (hNav1.7 [1]; [3]): 6.74
pIC50 (hNav1.7 [2]; [4]): 7.70

CC1(C)CCC(COc2cc(F)c(C(=O)NS(=O)(=O)N3CCC3)cc2C2CC2)CC1 [Example 309]
pIC50 (hNav1.7 [1]): 7.10
pIC50 (hNav1.7 [2]): 8.22

CS(=O)(=O)NC(=O)c1cc(C2CC2)c(OCC23CCCCC2C3(F)F)cc1F (centres unmarked) [Example 310]
pIC50 (hNav1.7 [1]; [3]): 8.00
pIC50 (hNav1.7 [2]; [4]): 7.08

COCCS(=O)(=O)NC(=O)c1cc(C2CC2)c(OCC23CCCCC2C3(F)F)cc1F (centres unmarked) [Example 311]
pIC50 (hNav1.7 [1]; [3]): 7.28
pIC50 (hNav1.7 [2]; [4]): 7.52

O=C(NS(=O)(=O)N1CCC1)c1cc(C2CC2)c(COC23CC4CC(CC(C4)C2)C3)cc1F [Example 320]
pIC50 (hNav1.7 [1]; [3]): 6.85
pIC50 (hNav1.7 [2]; [4]): 7.77

CS(=O)(=O)NC(=O)c1cc(F)c(OCC23CC4CC(CC(C4)C2)C3)c(Cl)c1 [Example 325]
pIC50 (hNav1.7 [1]; [3]): 5.60
pIC50 (hNav1.7 [2]; [4]): 6.57

O=C(NS(=O)(=O)C1CC1)c1cc(C2CC2)c(OCC2(C(F)(F)F)CCC2)cc1F [Example 327]
pIC50 (hNav1.7 [1]; [3]): 7.92
pIC50 (hNav1.7 [2]; [4]): 8.52

O=C(NS(=O)(=O)C1CC1)c1cc(Cl)c(OCC2(C(F)(F)F)CCC2)cc1F [Example 328]
pIC50 (hNav1.7 [1]; [3]): 7.15
pIC50 (hNav1.7 [2]; [4]): 7.62

O=C(NS(=O)(=O)N1CCC1)c1cc(C2CC2)c(OCC2(C(F)(F)F)CCC2)cc1F [Example 329]
pIC50 (hNav1.7 [1]; [3]): 7.70
pIC50 (hNav1.7 [2]; [4]): 8.40

O=C(NS(=O)(=O)N1CCC1)c1cc(Cl)c(OCC2(C(F)(F)F)CCC2)cc1F [Example 330]
pIC50 (hNav1.7 [1]; [3]): 7.04
pIC50 (hNav1.7 [2]; [4]): 7.60

— patent US8952169B2 (Genentech, Inc., priority 2012, dated 2015)
